Assay results taken from patent publication US12358983B2, “Combination of anti CD19 antibody with a BCL-2 inhibitor and uses thereof” (Incyte Corporation, priority 2016, dated 2025).

Assays:
[1] = test system: TOLEDO human lymphoma cell tumors; assay: Subcutaneous human lymphoma cell xenograft model in SCID mice; conditions: MOR00208 11 mg/kg i.p. twice weekly
Method: Toledo cell line and culture medium were purchased and provided by Oncodesign. […] The cells are adherent to plastic flasks.
A statistical test (analysis of variance, ANOVA) was performed to test for homogeneity between groups. MOR208 was injected intraperitoneally (IP) into the peritoneal cavity of mice. Combined substance was administered by oral gavage (per os, PO) via a gavage tube.
The treatment schedule initiated at D23 was as follows:
Animals from group 1 received one daily PO administration of PEP and one IP injection twice a week of PBS.
Animals from group 4 received one IP injection of MOR208 at 11 mg/kg/inj on D23, D27, D30, D34, D37 and D41 followed by a single IP injection of MOR208 at 11 mg/kg/inj on D48 (twice a week).
The viability and behavior were recorded every day. Body weights and tumor volume were measured twice a week. The length and width of the tumor were measured twice a week with calipers and the volume of the tumor was estimated by the formula:

MEC-1 cells = assay: Cytotoxicity (ADCC assay with NK effector cells) of MOR00208 and venetoclax alone and in combination in MEC-1 cells; format: cell-based
Source text: Cell lines tested: MEC-1 cells (DSMZ# ACC497). Culture conditions of cell lines used are according to supplier's information. Cell Medium: lscove's Modified Dulbecco's Medium (IMDM), Invitrogen, Cat No.: 31980; RPMI1640, Invitrogen, Cat No.: 31870; GlutaMAX, Invitrogen, CAT No.: 35050; FCS: Sigma CAT No.: F7524 LOT No.: 111M3396. NKs: RPMI1640, with GlutaMAX, Invitrogen, Cat No.: 31870, 10% FCS; Biocoll: Biochrome AG CAT No.: L6115 LOT No.: 0034D; MACS NK cell isolation kit: Miltenyi Biotec CAT No.: 130-092-657 LOT No.: 5150402327; venetoclax: Selleck Chem. CAT No.: S8048 LOT No.: S804803; FCS: Sigma CAT No.: F7524 LOT No.: 111M3396; and RefmAb33 (anti-RSV) with same Fc region as MOR00208.
The cytotoxic potential of MOR00208 and venetoclax alone and in combination were tested in the MEC-1 cell line (CLL). Target cell killing is measured using the following parameters: venetoclax mono treatment at concentrations of 3 μM, 6.5 μM, and 10 μM; MOR00208 mono treatment at concentrations of 0.01 pM, 0.1 pM, 1 pM, 10 pM, 100 pM and 10 nM, and the combination treatment of the listed venetoclax and MOR00208 concentrations. The following are used as controls: RefnnAb33, NK cells alone, MEC-1 cells alone or DMSO. In the venetoclax mono groups as well as in the MOR00208+venetoclax combination groups, target cells were pretreated with venetoclax or with DMSO control for 24 hours followed by removal of the dead cells prior to the ADCC assay. A dead cell removal kit was used to remove cells killed by the cytotoxic effect of venetoclax. The dead cell removal kit was implemented to mimick the removal of dead cells that also occurs in vivo and to prevent false negative interference of the dead cells with the subsequent ADCC assay. For the ADCC assay, target cells are counted and stained using CFSE at a final concentration of 1 μg/mL. For the control group, i.e. DMSO treated target cells, the effector: target (E:T) cell ratio was adjusted to 2:1, i.e. 1×10E6/nnL effector cells (NK cells) and 5×10E5/mL target cells (MEC-1 cells). […] The ADCC assays were performed as follows: using 96 well plates, 100 μL of MEC-1 target cell suspension was added per well, followed by 100 μL NK effector cell suspension per well. Mixed cell suspensions were centrifuged and resuspended in 100 μL antibody containing medium or the according control solution. The antibodies were diluted in a range of 10 nM-0.01 pM (corresponds to 1.5 μg/mL-1.5 pg/mL) in medium. The ADCC assays were incubated for 2 hours in a CO2-incubator at 37° C. After 10 minutes incubation on ice, 50 μL DAPI solution was added to each well (final concentration 1 μg/mL) and incubated for additional 10 minutes on ice. The ADCC measurements were performed on a BD FACSVerse instrument. Dead target cells were identified as DAPI positive cells.
Combination Index (CI) calculations are completed in order to determine synergy of the combination of the exemplified anti-CD19 antibody and venetoclax as compared to MOR00208 and venetoclax alone. Such calculations are described in Ting-Chao Chou, Theoretical Basis, Experimental Design, and Computerized Simulation of Synergism and Antagonism in Drug Combination Studies, Pharmacol Rev 58:621-681 (2006), which is incorporated by reference in its entirety and Chou TC, Talalay P, Quantitative analysis of dose-effect relationships: the combined effects of multiple drugs or enzyme inhibitors. Adv Enzyme Regul 22: 27-55 (1984), which is incorporated by reference in its entirety. The methods of Chou-Talalay are carried out using the CI-isobol method.
The median-effect equation models the effect of an inhibitor (such as a drug) as Fa/Fu=(D/D50)^m, where D is the dose, Fa and Fu is the fraction of the system affected and unaffected by the dose D (Fa+Fu=1); D50 is the dose producing the median effect (e.g. IC50, ED50, LD50). The constant m determines the shape of the dose-effect curve.

MOR00208: anti-CD19 antibody; heavy chain SEQ ID NO: 14, light chain SEQ ID NO: 15
Median Tumor Doubling Time [1]: 8.0 days | Median Survival (Days Post-Randomization) ([1]; humane endpoint tumor volume 2000 mm3): 25.3 days | Median % Increase in Doubling Time (IDT) ([1]; vs. PEP/PBS Control): 18% | Median % Increase in Lifespan (ILS) ([1]; vs. PEP/PBS Control): 20% | Actual MOR00208 Effect (MEC-1 cells; Exp 1, MOR00208 1.50E+00 μg/mL): 69.4 % dead cells | Actual MOR00208 Effect (MEC-1 cells; Exp 1, MOR00208 1.50E−02 μg/mL): 66.8 % dead cells | Actual MOR00208 Effect (MEC-1 cells; Exp 1, MOR00208 1.50E−03 μg/mL): 43.4 % dead cells | Actual MOR00208 Effect (MEC-1 cells; Exp 1, MOR00208 1.50E−04 μg/mL): 22.8 % dead cells | Actual MOR00208 Effect (MEC-1 cells; Exp 1, MOR00208 1.50E−05 μg/mL): 17.4 % dead cells | Actual MOR00208 Effect (MEC-1 cells; Exp 1, MOR00208 1.50E−06 μg/mL): 15.3 % dead cells | Theoretical MOR00208 Dose (MEC-1 cells; Exp 1, same effect as MOR00208 1.50E+00 μg/mL + venetoclax 3.0 μM): * 1.00E+03^ μg/mL | Theoretical MOR00208 Dose (MEC-1 cells; Exp 1, same effect as MOR00208 1.50E+00 μg/mL + venetoclax 6.5 μM): * 1.00E+03^ μg/mL | Theoretical MOR00208 Dose (MEC-1 cells; Exp 1, same effect as MOR00208 1.50E+00 μg/mL + venetoclax 10.0 μM): * 1.00E+03^ μg/mL | Theoretical MOR00208 Dose (MEC-1 cells; Exp 1, same effect as MOR00208 1.50E−02 μg/mL + venetoclax 3.0 μM): 0.0304 µg/mL | Theoretical MOR00208 Dose (MEC-1 cells; Exp 1, same effect as MOR00208 1.50E−02 μg/mL + venetoclax 6.5 μM): * 1.00E+03^ μg/mL | Theoretical MOR00208 Dose (MEC-1 cells; Exp 1, same effect as MOR00208 1.50E−02 μg/mL + venetoclax 10.0 μM): * 1.00E+03^ μg/mL | Theoretical MOR00208 Dose (MEC-1 cells; Exp 1, same effect as MOR00208 1.50E−03 μg/mL + venetoclax 3.0 μM): 0.00125 µg/mL | Theoretical MOR00208 Dose (MEC-1 cells; Exp 1, same effect as MOR00208 1.50E−03 μg/mL + venetoclax 6.5 μM): 0.00404 µg/mL | Theoretical MOR00208 Dose (MEC-1 cells; Exp 1, same effect as MOR00208 1.50E−03 μg/mL + venetoclax 10.0 μM): 0.00914 µg/mL | Theoretical MOR00208 Dose (MEC-1 cells; Exp 1, same effect as MOR00208 1.50E−04 μg/mL + venetoclax 3.0 μM): 0.000132 µg/mL | Theoretical MOR00208 Dose (MEC-1 cells; Exp 1, same effect as MOR00208 1.50E−04 μg/mL + venetoclax 6.5 μM): 0.00041 µg/mL | Theoretical MOR00208 Dose (MEC-1 cells; Exp 1, same effect as MOR00208 1.50E−04 μg/mL + venetoclax 10.0 μM): 0.000543 µg/mL | Theoretical MOR00208 Dose (MEC-1 cells; Exp 1, same effect as MOR00208 1.50E−05 μg/mL + venetoclax 3.0 μM): 1.41e-05 µg/mL | Theoretical MOR00208 Dose (MEC-1 cells; Exp 1, same effect as MOR00208 1.50E−05 μg/mL + venetoclax 6.5 μM): 8.47e-05 µg/mL | Theoretical MOR00208 Dose (MEC-1 cells; Exp 1, same effect as MOR00208 1.50E−05 μg/mL + venetoclax 10.0 μM): 0.000163 µg/mL | Theoretical MOR00208 Dose (MEC-1 cells; Exp 1, same effect as MOR00208 1.50E−06 μg/mL + venetoclax 10.0 μM): 2.33e-05 µg/mL | Actual MOR00208 Effect (MEC-1 cells; Exp 2, MOR00208 1.50E+00 μg/mL): 74.8 % dead cells | Actual MOR00208 Effect (MEC-1 cells; Exp 2, MOR00208 1.50E−02 μg/mL): 69.6 % dead cells | Actual MOR00208 Effect (MEC-1 cells; Exp 2, MOR00208 1.50E−03 μg/mL): 55.9 % dead cells | Actual MOR00208 Effect (MEC-1 cells; Exp 2, MOR00208 1.50E−04 μg/mL): 40.3 % dead cells | Actual MOR00208 Effect (MEC-1 cells; Exp 2, MOR00208 1.50E−05 μg/mL): 34.5 % dead cells | Actual MOR00208 Effect (MEC-1 cells; Exp 2, MOR00208 1.50E−06 μg/mL): 29.7 % dead cells | Theoretical MOR00208 Dose (MEC-1 cells; Exp 2, same effect as MOR00208 1.50E+00 μg/mL + venetoclax 3.0 μM): * 1.00E+03^ μg/mL | Theoretical MOR00208 Dose (MEC-1 cells; Exp 2, same effect as MOR00208 1.50E+00 μg/mL + venetoclax 6.5 μM): * 1.00E+03^ μg/mL | Theoretical MOR00208 Dose (MEC-1 cells; Exp 2, same effect as MOR00208 1.50E+00 μg/mL + venetoclax 10.0 μM): * 1.00E+03^ μg/mL | Theoretical MOR00208 Dose (MEC-1 cells; Exp 2, same effect as MOR00208 1.50E−02 μg/mL + venetoclax 3.0 μM): * 1.00E+03^ μg/mL
